Experimental data reported in patent US20090253709A1 (NATIONAL DEFENSE MEDICAL CENTER, priority 2008, published 2009).

Key:
Assay in all cases: In vitro cytotoxicity, Development Therapeutics Program
Assay type in all cases: cell-based
LOX IMVI = details: melanoma, 1.0×10^−5 M
Excerpt: (§1) From the in vitro experiments of the Development Therapeutics Program of the Cancer Research Institute, the United States, it was known that the synthetic heterocyclic anthraquinone derivatives of the present invention have different inhibition levels to the different cancer cell lines under the concentration of 1.0×10^−5 M. Please refer to Table 2, which is the result of in vitro cytotoxicity of 2,7-disubstituted anthraquinone derivatives of the present invention.

NCl-H522 = details: NCl-H522, non-small cell lung cancer; 1.0×10^−5 M
Excerpt: as §1

MCF7 = details: MCF7, breast cancer; 1.0×10^−5 M
Excerpt: as §1

HOP-92 = details: HOP-92, non-small cell lung cancer; 1.0×10^−5 M
Excerpt: as §1

DU-145 = details: DU-145, prostate cancer; 1.0×10^−5 M
Excerpt: as §1

HCT-15 = details: HCT-15, colon cancer; 1.0×10^−5 M
Excerpt: as §1

SK-MEL-2 = details: SK-MEL-2, melanoma; 1.0×10^−5 M
Excerpt: as §1

SR = details: leukemia, 1.0×10^−5 M
Excerpt: as §1

MDA-MB-231/ATCC = details: breast cancer, 1.0×10^−5 M
Excerpt: as §1

CAK1-1 = details: CAK1-1, renal cancer; 1.0×10^−5 M
Excerpt: as §1

NCI/ADR-RES = details: breast cancer, 1.0×10^−5 M
Excerpt: as §1

HS 578T = details: breast cancer, 1.0×10^−5 M
Excerpt: as §1

HT29 = details: HT29, colon cancer; 1.0×10^−5 M
Excerpt: as §1

PC-3 = details: PC-3, prostate cancer; 1.0×10^−5 M
Excerpt: as §1

NCl-H226 = details: NCl-H226, non-small cell lung cancer; 1.0×10^−5 M
Excerpt: as §1

MOLT-4 = details: MOLT-4, leukemia; 1.0×10^−5 M
Excerpt: as §1

UO-31 = details: UO-31, renal cancer; 1.0×10^−5 M
Excerpt: as §1

BT-549 = details: BT-549, breast cancer; 1.0×10^−5 M
Excerpt: as §1

SN12C = details: renal cancer, 1.0×10^−5 M
Excerpt: as §1

HOP-62 = details: HOP-62, non-small cell lung cancer; 1.0×10^−5 M
Excerpt: as §1

EKVX = details: non-small cell lung cancer, 1.0×10^−5 M
Excerpt: as §1

SF-268 = details: SF-268, CNS cancer; 1.0×10^−5 M
Excerpt: as §1

K-562 = details: K-562, leukemia; 1.0×10^−5 M
Excerpt: as §1

UACC-62 = details: UACC-62, melanoma; 1.0×10^−5 M
Excerpt: as §1

ACHN = details: renal cancer, 1.0×10^−5 M
Excerpt: as §1

MALME-3M = details: melanoma, 1.0×10^−5 M
Excerpt: as §1

SK-MEL-5 = details: SK-MEL-5, melanoma; 1.0×10^−5 M
Excerpt: as §1

M14 = details: M14, melanoma; 1.0×10^−5 M
Excerpt: as §1

MDA-MB-435 = details: MDA-MB-435, breast cancer; 1.0×10^−5 M
Excerpt: as §1

CCRF-CEM = details: leukemia, 1.0×10^−5 M
Excerpt: as §1

OVCAR-8 = details: OVCAR-8, ovarian cancer; 1.0×10^−5 M
Excerpt: as §1

A498 = details: A498, renal cancer; 1.0×10^−5 M
Excerpt: as §1

NCI-H23 = details: NCI-H23, non-small cell lung cancer; 1.0×10^−5 M
Excerpt: as §1

SK-OV-3 = details: SK-OV-3, ovarian cancer; 1.0×10^−5 M
Excerpt: as §1

786-0 = details: 786-0, renal cancer; 1.0×10^−5 M
Excerpt: as §1

HCT-116 = details: HCT-116, colon cancer; 1.0×10^−5 M
Excerpt: as §1

COLO 205 = details: COLO 205, colon cancer; 1.0×10^−5 M
Excerpt: as §1

OVCAR-5 = details: OVCAR-5, ovarian cancer; 1.0×10^−5 M
Excerpt: as §1

| Structure (SMILES) | Cellular growth rate (%) (LOX IMVI) | Cellular growth rate (%) (NCl-H522) | Cellular growth rate (%) (MCF7) | Cellular growth rate (%) (HOP-92) | Cellular growth rate (%) (DU-145) | Cellular growth rate (%) (HCT-15) | Cellular growth rate (%) (SK-MEL-2) | Cellular growth rate (%) (SR) | Cellular growth rate (%) (MDA-MB-231/ATCC) | Cellular growth rate (%) (CAK1-1) | Cellular growth rate (%) (NCI/ADR-RES) | Cellular growth rate (%) (HS 578T) | Cellular growth rate (%) (HT29) | Cellular growth rate (%) (PC-3) | Cellular growth rate (%) (NCl-H226) | Cellular growth rate (%) (MOLT-4) | Cellular growth rate (%) (UO-31) | Cellular growth rate (%) (BT-549) | Cellular growth rate (%) (SN12C) | Cellular growth rate (%) (HOP-62) | other results |
| --- | --- | --- | --- | --- | --- | --- | --- | --- | --- | --- | --- | --- | --- | --- | --- | --- | --- | --- | --- | --- | --- |
| CN(C)CC(=O)Nc1ccc2c(c1)C(=O)c1cc(NC(=O)CN(C)C)ccc1C2=O [Compound 8, 2,7-Bis[2-(dimethylamino)acetamido]anthraquinone] | −52.34 | 61.82 | 7.92 | 56.14 | 78.68 | 16.26 | −30.35 | −46.45 | 4.49 | 59.26 | 47.84 | −6.11 | 11.73 | 59.00 | 89.14 | 29.12 | −82.55 | 85.36 | 27.99 | 28.97 | Cellular growth rate (%) (EKVX): 102.30%; Cellular growth rate (%) (SF-268): 64.92%; Cellular growth rate (%) (K-562): 34.91%; Cellular growth rate (%) (UACC-62): 22.31%; Cellular growth rate (%) (ACHN): 66.43%; Cellular growth rate (%) (MALME-3M): 96.21%; Cellular growth rate (%) (SK-MEL-5): 82.59%; Cellular growth rate (%) (M14): 75.04%; Cellular growth rate (%) (MDA-MB-435): 68.36%; Cellular growth rate (%) (CCRF-CEM): −13.21%; Cellular growth rate (%) (OVCAR-8): 32.31%; Cellular growth rate (%) (A498): −6.39%; Cellular growth rate (%) (NCI-H23): 51.78%; Cellular growth rate (%) (SK-OV-3): 70.26%; Cellular growth rate (%) (786-0): 68.60%; Cellular growth rate (%) (HCT-116): 19.07%; Cellular growth rate (%) (COLO 205): −73.57%; Cellular growth rate (%) (OVCAR-5): 73.15% |
| CCN(CC)CCC(=O)Nc1ccc2c(c1)C(=O)c1cc(NC(=O)CCN(CC)CC)ccc1C2=O [Compound 16, 2,7-Bis[3-(diethylamino)propionamido]anthraquinone] | 3.39 | 27.98 | 9.34 | 9.70 | 10.20 | 17.42 | −60.38 | −0.39 | 31.32 | 3.27 | 59.52 | −23.77 | 3.30 | 13.59 | 49.89 | 5.42 | −31.53 | 57.04 | 8.63 | 11.65 | Cellular growth rate (%) (EKVX): 59.99%; Cellular growth rate (%) (SF-268): 35.18%; Cellular growth rate (%) (K-562): 8.10%; Cellular growth rate (%) (UACC-62): 44.45%; Cellular growth rate (%) (ACHN): 11.09%; Cellular growth rate (%) (MALME-3M): 62.39%; Cellular growth rate (%) (SK-MEL-5): 82.75%; Cellular growth rate (%) (M14): 62.79%; Cellular growth rate (%) (MDA-MB-435): 71.07%; Cellular growth rate (%) (CCRF-CEM): −6.02%; Cellular growth rate (%) (OVCAR-8): 4.30%; Cellular growth rate (%) (A498): −38.76%; Cellular growth rate (%) (NCI-H23): 30.34%; Cellular growth rate (%) (SK-OV-3): 44.02%; Cellular growth rate (%) (786-0): 24.72%; Cellular growth rate (%) (HCT-116): −32.45%; Cellular growth rate (%) (COLO 205): −49.69%; Cellular growth rate (%) (OVCAR-5): 33.63% |
